Patent US20180008587A1, “THIOHYDANTOIN ANDROGEN RECEPTOR ANTAGONISTS FOR THE TREATMENT OF CANCER” (Jaressen Pharmaceutica NV, priority 2016, published 2018)
Where a chain is given by its changes, count along the chain named. Where two headings read alike, the source gives them in different places.

Legend:
Type in all cases: cell-based
[1] = biological target: T1, wild-type Androgen Receptor (AR-wt) (Homo sapiens, UniProt P10275); test: LNCaP-AR-wt ANT reporter assay (ARE firefly luciferase, antagonist mode); conditions: for IC50: antagonist mode, 400 pM R-1881 challenge, −Log10(IC50 [Molar]), read-out: LNCaP-AR-wt ANT pIC50 (converted); for Emax: read-out: LNCaP-AR-wt ANT MAX % Inh
T1 construct: expressed in transfected cells; host or cells: LNCaP (LNCaP AR (cs))
T1 sequence (P10275 1-920): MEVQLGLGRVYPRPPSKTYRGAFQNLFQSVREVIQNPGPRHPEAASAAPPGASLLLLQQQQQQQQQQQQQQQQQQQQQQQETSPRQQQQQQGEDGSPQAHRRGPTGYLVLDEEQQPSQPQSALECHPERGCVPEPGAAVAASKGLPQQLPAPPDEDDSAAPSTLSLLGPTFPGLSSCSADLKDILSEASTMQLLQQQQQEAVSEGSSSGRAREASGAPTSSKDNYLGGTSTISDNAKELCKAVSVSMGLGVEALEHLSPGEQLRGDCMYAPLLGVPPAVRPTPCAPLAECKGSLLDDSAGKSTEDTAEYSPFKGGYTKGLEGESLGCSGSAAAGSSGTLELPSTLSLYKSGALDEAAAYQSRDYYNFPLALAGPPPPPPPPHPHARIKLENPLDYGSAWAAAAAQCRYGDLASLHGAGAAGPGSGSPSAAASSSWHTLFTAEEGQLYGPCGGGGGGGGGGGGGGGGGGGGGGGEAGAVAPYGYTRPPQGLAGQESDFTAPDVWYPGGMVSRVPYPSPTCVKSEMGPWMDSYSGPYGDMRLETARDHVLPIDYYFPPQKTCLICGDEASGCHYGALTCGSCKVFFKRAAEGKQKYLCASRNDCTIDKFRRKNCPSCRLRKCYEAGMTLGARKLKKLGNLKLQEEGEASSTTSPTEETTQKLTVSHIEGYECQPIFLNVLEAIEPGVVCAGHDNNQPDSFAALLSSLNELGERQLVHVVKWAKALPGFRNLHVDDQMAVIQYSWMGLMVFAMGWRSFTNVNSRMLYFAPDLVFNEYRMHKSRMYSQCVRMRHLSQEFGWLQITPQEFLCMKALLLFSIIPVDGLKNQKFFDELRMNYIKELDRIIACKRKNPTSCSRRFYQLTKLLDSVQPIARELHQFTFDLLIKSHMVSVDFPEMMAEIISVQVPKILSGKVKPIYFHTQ
Method in brief: (§1)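 Puromycin-selected LNCaP pools, grown in charcoal-stripped serum, were incubated 20-24 h at 37 °C with compounds, plus agonist challenge at 400 pM for wild-type and 600 pM for F876L.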

[2] = biological target: T2, F876L mutant Androgen Receptor (AR-F876L) (Homo sapiens, UniProt P10275, F877L); test: LNCaP-AR-F876L ANT reporter assay (ARE firefly luciferase, antagonist mode); conditions: for Emax: read-out: LNCaP-AR-F876L ANT MAX % Inh; for IC50: read-out: LNCaP-AR-F876L ANT pIC50 (converted)
T2 construct: expressed in transfected cells; host or cells: LNCaP (LNCaP F876L)
T2 sequence (P10275 1-920 F877L): T1 sequence (P10275 1-920) with F877L
Method in brief: as §1

[3] = biological target: T2, F876L mutant Androgen Receptor (AR-F876L); test: LNCaP-AR-F876L AG reporter assay (ARE firefly luciferase, agonist mode); conditions: for Emax: read-out: LNCaP-AR-F876L AG MAX % Stim
Method in brief: (§2)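 Puromycin-selected pooled LNCaP populations expressing AR-wt or AR-F876L are seeded in CSS medium and treated with compound for 20-24 h at 37 °C. For antagonist testing, agonist is added at 400 pM (WT) or 600 pM (F876L). Potency values derive from least-squares fitting of luminescence RLU.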

[4] = biological target: T1, wild-type Androgen Receptor (AR-wt); test: LNCaP-AR-wt AG reporter assay (ARE firefly luciferase, agonist mode); conditions: for Emax: read-out: LNCaP-AR-wt AG MAX % Stim
Method in brief: as §2

[5] = maximum % inhibition of R1881 control response over tested concentration range
[6] = agonist mode, −Log10(EC50 [Molar]), read-out: LNCaP-AR-F876L AG pEC50 (converted)
[7] = maximum % stimulation (agonist response) over tested concentration range
[8] = agonist mode, −Log10(EC50 [Molar]), read-out: LNCaP-AR-wt AG pEC50 (converted)

SMILES	IC50 [1] [nM]	Emax [1, 5] [%]	Emax [2, 5] [%]	IC50 [2] [nM]	EC50 [3, 6] [nM]	Emax [3, 7] [%]	EC50 [4, 8] [nM]	Emax [4, 7] [%]	Emax [1] [%]	Emax [2] [%]	EC50 [3] [nM]	Emax [3] [%]	EC50 [4] [nM]	Emax [4] [%]
CNC(=O)c1ccc(N2C(=S)N(c3cnc(C#N)c(C(F)F)c3)C(=O)C23CCC3)cc1F [Cpd 39, 4-[6-[6-cyano-5-(difluoromethyl)-3-pyridyl]-5-oxo-7-thioxo-6,8-diazaspiro[3.4]octan-8-yl]-2-fluoro-N-methyl-benzamide]	1820	97.2	94.4	1550	> 15100	0.3	> 15100	0.2	–	–	–	–	–	–
CC(C)(O)CNC(=O)c1ccc(N2C(=S)N(c3cnc(C#N)c(C(F)(F)F)c3)C(=O)C23CCC3)cc1F [Cpd 17, 4-[6-[6-cyano-5-(trifluoromethyl)-3-pyridyl]-5-oxo-7-thioxo-6,8-diazaspiro[3.4]octan-8-yl]-2-fluoro-N-(2-hydroxy-2-methyl-propyl)benzamide]	2690	–	–	1100	–	–	–	–	95.5	97.2	> 15100	0.1	> 15100	-0.1
Cc1cc(N2C(=O)C(C)(C)N(c3ccc(OC4CCN(C)CC4)cc3)C2=S)cnc1C#N [Cpd 1, 5-[4,4-dimethyl-3-[4-[(1-methyl-4-piperidyl)oxy]phenyl]-5-oxo-2-thioxo-imidazolidin-1-yl]-3-methyl-pyridine-2-carbonitrile]	871	100	101	513	> 15100	-0.6	> 15100	0.5	–	–	–	–	–	–
CCCCNC(=O)c1ccc(N2C(=S)N(c3cnc(C#N)c(C(F)(F)F)c3)C(=O)C23CCC3)cc1F [Cpd 58, N-butyl-4-[6-[6-cyano-5-(trifluoromethyl)-3-pyridyl]-5-oxo-7-thioxo-6,8-diazaspiro[3.4]octan-8-yl]-2-fluoro-benzamide]	245	102	98.2	204	> 15100	0.6	> 15100	0.1	–	–	–	–	–	–
N#Cc1ncc(N2C(=O)C3(CCC3)N(c3ccc(OCCN4CCNCC4)c(F)c3)C2=S)cc1C(F)(F)F [Cpd 105, 5-[8-[3-fluoro-4-(2-piperazin-1-ylethoxy)phenyl]-5-oxo-7-thioxo-6,8-diazaspiro[3.4]octan-6-yl]-3-(trifluoromethyl)pyridine-2-carbonitrile]	575	95.7	95.3	490	> 15100	2.3	> 15100	1.2	–	–	–	–	–	–
N#Cc1ncc(N2C(=O)C3(CCC3)N(c3ccc(OCCc4ncccn4)c(F)c3)C2=S)cc1C(F)(F)F [Cpd 56, 5-[8-[3-fluoro-4-(2-pyrimidin-2-ylethoxy)phenyl]-5-oxo-7-thioxo-6,8-diazaspiro[3.4]octan-6-yl]-3-(trifluoromethyl)pyridine-2-carbonitrile]	851	99.7	97.8	832	> 15100	0.4	> 15100	0.5	–	–	–	–	–	–
CCOC(=O)CNC(=O)c1ccc(N2C(=S)N(c3cnc(C#N)c(C(F)(F)F)c3)C(=O)C23CCC3)cc1F [Cpd 41, ethyl 2-[[4-[6-[6-cyano-5-(trifluoromethyl)-3-pyridyl]-5-oxo-7-thioxo-6,8-diazaspiro[3.4]octan-8-yl]-2-fluoro-benzoyl]amino]acetate]	282	102	102	186	> 15100	0.3	> 15100	-0.2	–	–	–	–	–	–
Cc1cc(N2C(=O)C3(CCC3)N(c3ccc(-c4cncnc4)cc3)C2=S)cnc1C#N [Cpd 93, 3-methyl-5-[5-oxo-8-(4-pyrimidin-5-ylphenyl)-7-thioxo-6,8-diazaspiro[3.4]octan-6-yl]pyridine-2-carbonitrile]	407	–	–	234	–	–	–	–	100	100	> 15100	0.8	> 15100	0.9
N#Cc1ncc(N2C(=O)C3(CCC3)N(c3cccc(CO)c3)C2=S)cc1C(F)(F)F [Cpd 81, 5-[8-[3-(hydroxymethyl)phenyl]-5-oxo-7-thioxo-6,8-diazaspiro[3.4]octan-6-yl]-3-(trifluoromethyl)pyridine-2-carbonitrile]	708	–	–	776	–	–	–	–	95.9	100	> 15100	1.2	> 15100	0.7
N#Cc1ncc(N2C(=O)C3(CCC3)N(c3ccc(OC4CCN(CCO)CC4)cc3)C2=S)cc1C(F)(F)F [Cpd 51, 5-[8-[4-[[1-(2-hydroxyethyl)-4-piperidyl]oxy]phenyl]-5-oxo-7-thioxo-6,8-diazaspiro[3.4]octan-6-yl]-3-(trifluoromethyl)pyridine-2-carbonitrile]	389	–	–	200	–	–	–	–	99	101	> 15100	0.2	> 15100	0.8
N#Cc1ncc(N2C(=O)C3(CCC3)N(c3ccc(OC(F)(F)F)cc3)C2=S)cc1C(F)(F)F [Cpd 38, 5-[5-oxo-7-thioxo-8-[4-(trifluoromethoxy)phenyl]-6,8-diazaspiro[3.4]octan-6-yl]-3-(trifluoromethyl)pyridine-2-carbonitrile]	398	100	99	229	> 15100	–	> 15100	–	–	–	–	0.3	–	1.2
CC(C)NC(=O)c1ccc(N2C(=S)N(c3cnc(C#N)c(C(F)(F)F)c3)C(=O)C23CCC3)cc1F [Cpd 23, 4-[6-[6-cyano-5-(trifluoromethyl)-3-pyridyl]-5-oxo-7-thioxo-6,8-diazaspiro[3.4]octan-8-yl]-2-fluoro-N-isopropyl-benzamide]	1260	99.4	99.6	347	> 15100	0	> 15100	0.9	–	–	–	–	–	–
